From US8440669B2, “Pharmaceutical composition for prevention and treatment of diabetes or obesity comprising a compound that inhibits activity of dipeptidyl peptidase-IV, and other antidiabetic or antiobesity agents as active ingredients” (Dong-A Pharmaceutical Co. Ltd., priority 2008, dated 2013)
Where “and” joins values, the source holds several entries; their conditions need not be identical. Equal values may be shown once.

Tests used:
Type in all cases: in vivo
[1] = Fat mass (epidydimal + retroperitoneal fat) after 4-week administration in diet-induced obesity mice; settings: 4 weeks; for Fat mass: HF-DIO mice (control 3.61 ± 0.20); for % reduction (fat mass): vs HF-DIO control group
Description: (§1) In order to examine synergistic effects by repeated administration of a compound prepared in Preparation Example 1 and cannabinoid receptor-1 antagonist, effects of 4-week administration to obese mice on an OGTT blood glucose change curve and on fat mass were evaluated. Diet-induced obesity mice obtained by supplying experimental mice (C57BL/6 mice) with high fat fodder (60 kcal % fat, Research Diets, D12492) for 5 month were used as experimental subjects. 0.5% methylcellulose (MC) was used to prepare a suspension of the compound 1 prepared in Preparation Example 1 with a composition of 0.3 mg/kg which is presumed to be a dose of minimum effective efficacy and 3 mg/kg. 0.5% MC was used to prepare a suspension of rimonabant, a cannabinoid receptor-1 antagonist with a composition of 3 mg/kg. Rimonabant has the same parent nucleus structure as a cannabinoid receptor-1 antagonist, such as Otenabant, Ibinabant, and Surinabant, and 5 mL/kg of the complex thereof was prepared in doses of (0.3 mg of a compound prepared in Preparation Example 1+3 mg of rimonabant)/5 mL and (3 mg of a compound prepared in Preparation Example 1+3 mg/kg of rimonabant)/5 mL. When the mixing ratio is 1:0.1 or less, or 1:1 or more, the dose may exceed a daily clinical dose of rimonabant or poor efficacy may occur. Thus, the mixing ratio was set at […].
Experiments were performed on the experimental subject and experimental drug in the same manner as in Experimental Example 5-1, the fat mass was calculated as a sum of epidydimal fat and retroperitoneal fat, and fat mass 4 weeks after administration was measured.

plasma glucose = assay: Plasma glucose after 2-week repeated administration in diet-induced obesity mice; settings: obese mice
Description: (§2) In order to examine synergistic effects of a compound prepared in Preparation Example 1 of the present invention and metformin complex by repeated administration, effects of a single administration to obese mice on an OGTT blood glucose change curve and of a 2-week repeated administration on the percent inhibition of blood glucose were evaluated. Diet-induced obesity mice obtained by supplying experimental mice (C57BL/6 mice) with high fat fodder (60 kcal % fat, Research Diets, D12492) for 5 month were used as experimental subjects. 0.5% methylcellulose (MC) was used to prepare a suspension of the compound 1 prepared in Preparation Example 1 with a composition of 0.1 mg/kg and 0.15 mg/kg. 0.5% MC was used to prepare a suspension of metformin with a composition of 7.5 mg/kg and 15 mg/kg. […] of the complex was prepared in doses of (0.1 mg/kg of a compound prepared in Preparation Example 1+15 mg/kg of metformin)/5 mL and (0.15 mg/kg of a compound prepared in Preparation Example 1+7.5 mg/kg of metformin)/5 mL.

blood glucose [2] = assay: OGTT, single administration in diet-induced obesity mice; settings: obese mice
Description: as §2
(§3) Obese mice were fasted for 16 to 17 hours prior to the experiments, blood was collected from caudal veins of mice in the morning on the day of the experiment and a blood glucose level was measured with an ACCU-CHEK ACTIVE Blood Glucose Meter (Roche Diagnostics). The mixed composition of the present invention was given orally 30 min prior to glucose administration (−30 min), followed by oral administration of a glucose solution (2 g/kg/10 mL) after 30 min (0 min). Blood collection was made at designated time points—just prior to drug administration, just prior to glucose administration, and 15, 30, 60 and 90 min after glucose administration. The percent inhibition value was calculated by calculating an area under curve of each group and comparing the value with that of a control group in which glucose had been administered.

blood glucose [3] = assay: OGTT, single administration in C57BL/6 mice (glimepiride combination)
Description: In order to examine synergistic effects of a complex of a compound prepared in Preparation Example 1 of the present invention and an insulin secretagogue sulfonyl urea-series drug, the percent inhibitions of single administration OGTT blood glucose change curves by individual materials and complexes were evaluated. 8-week-old male experimental mice (C57BL/6 mice) were used and fasted for 16 to 17 hours prior to the experiments. Blood was collected from caudal veins of mice in the morning on the day of the experiment and a blood glucose level was measured with an ACCU-CHEK ACTIVE Blood Glucose Meter (Roche Diagnostics). The mixed composition of the present invention was given orally 30 min prior to glucose administration (−30 min), followed by oral administration of a glucose solution (2 g/kg/10 mL) after 30 min (0 min). Blood collection was made at designated time points—just prior to drug administration, just prior to glucose administration, and 15, 30, 60 and 90 min after glucose administration. […] In order to evaluate synergistic or additive effects by complex in the present evaluation, 0.5% methylcellulose (MC) was used to prepare a suspension with a dose of a compound prepared in Preparation Example 1 at 0.1 mg/kg, and 0.5% MC was also used to prepare a suspension with a composition of an insulin secretagogue sulfonyl urea-series drug and glimepiride at 0.02 mg/kg and 0.32 mg/kg such that a complex ratio may be included at a clinical dose expected in a fixed state of a compound prepared in Preparation Example 1. […] A complex thereof was prepared at 10 mL per kg by weighing individual compounds and mixing the compounds with each composition ((a compound prepared in Preparation Example 10.1 mg+glimepiride 0.02 mg)/10 mL and (a compound prepared in Preparation Example 10.1 mg+glimepiride 0.32 mg)/10 mL)).

blood glucose [4] = assay: Oral glucose tolerance test (OGTT), single administration in normal mice; ED30 and isobologram; settings: C57BL/6 mice; for ED30 ± (SEM): dose giving 30% inhibition of OGTT blood glucose AUC, single agent
Description: Laboratory mice (C57BL/6 mice) as experimental subjects were fasted for 16 to 17 hours prior to the experiments. Blood was collected from caudal veins of mice in the morning on the day of the experiment and a blood glucose level was measured with an ACCU-CHEK ACTIVE Blood Glucose Meter (Roche Diagnostics). The pharmaceutical composition of the present invention was given orally 30 min prior to glucose administration (−30 min), followed by oral administration of a glucose solution (2 g/kg/10 mL) after 30 min (0 min). Blood collection was made at designated time points—just prior to drug administration, just prior to glucose administration, and 15, 30, 60 and 90 min after glucose administration.
Effects of single administration of the individual agents on a blood glucose change curve in an oral glucose tolerance test (OGTT) were identified by percent inhibition (%) and ED30. The percent inhibition values for each treatment were generated from the area under curve (AUC) data normalized to the non-glucose challenged controls by subtracted blood glucose AUC of non-glucose challenged controls from glucose challenged groups, and comparing the value with that of a control group in which glucose has been administered.
Feasible synergistic effects of a composition at each fixed ratio were analyzed by isobologram (R. J. Tallarida et al, Life Sci. 1989, 45, 947). […] When the result of ED30mix<ED30add is established at a certain fixed ratio, the mixture has synergistic effects. ED30add was calculated from ED30 of each drug. In FIG. 1, fractions of the ED30 values of each material are present on each axis thereof. The ED30 value of the compound prepared in Preparation Example 1 only is 0.2 mg/kg and shown as value 1 in FIG. 1, and the ED30 value of metformin only is 30 mg/kg and shown as value 1 in FIG. 1. Therefore, the line combining the ED30 values of the two individual drugs indicates a simple additivity (ED30add) calculated from glucose tolerance effects at different ratios. Therefore, the points designated as A, B, C, and D in FIG. 1 with respect to each mixture studied indicate fractions of ED30 values (ED30mic) determined by actual experiments performed on a mixtures of the compound prepared in Preparation Example 1 and metformin at ratios of 9:1, 5:1, 1:1, and 1:3. The points A′, B′, C′, and D′ in FIG. 1 indicate fractions of doses (ED30add) corresponding to mixtures of the compound prepared in Preparation Example 1 and metformin at ratios of 9:1, 5:1, 1:1, and 1:3 expected under a simple additivity.
The ratios of doses actually administered to animals in each fraction were calculated by multiplying 0.2 mg/kg and 30 mg/kg which are ED30 values of the compound prepared in Preparation Example 1 and metformin, respectively with a desired ratio. Administrations were performed in the ranges of: 0.045˜0.36 mg/kg of the compound prepared in Preparation Example 1+0.75˜6 mg/kg of metformin at a ratio of 9:1, 0.042˜0.33 mg/kg of the compound prepared in Preparation Example 1+1.25˜10 mg/kg of metformin at a ratio of 5:1, 0.025˜0.2 mg/kg of the compound prepared in Preparation Example 1+[…] of metformin at a ratio of 1:1, 0.0125˜0.2 mg/kg of the compound prepared in Preparation Example 1+5.625˜45 mg/kg of metformin at a ratio of 1:3. When this is applied to a healthy adult (about 70 kg), the dose corresponds to 0.88˜25.2 mg of the compound prepared in Preparation Example 1 and 52.5˜3150 mg of metformin, and includes a daily clinical dose of metformin, which is 500˜2000 mg.

blood glucose [5] = assay: Oral sucrose tolerance test, single administration in C57BL/6 mice (voglibose combination)
Description: In order to examine synergistic effects of a compound prepared in Preparation Example 1 of the present invention and an α-glucosidase inhibitor-series drug by complexing drugs, the percent inhibition in a single administration oral sucrose tolerance test blood glucose change curve by individual materials and a complex thereof was evaluated. 8-week-old male experimental mice (C57BL/6 mice) were used as experimental subjects. The mice were fasted for 16 to 17 hours prior to the experiments. Blood was collected from caudal veins of mice in the morning on the day of the experiment and a blood glucose level was measured with an ACCU-CHEK ACTIVE Blood Glucose Meter (Roche Diagnostics). The pharmaceutically mixed composition of the present invention was given orally 30 min prior to sucrose administration (−30 min), followed by oral administration of a […] (2 g/kg/10 mL) after 30 min (0 min). Blood collection was made at designated time points—just prior to drug administration, just prior to sucrose administration, and 15, 30, 60, 90, and 120 min after sucrose administration. […] In order to evaluate synergistic or additive effects by complexes in the present evaluation, 0.5% methylcellulose (MC) was used to prepare a suspension with a compound prepared in Preparation Example 1 at a dose of 0.3 mg/kg, and 0.5% MC was also used to prepare a suspension with a composition of an α-glucosidase inhibitor and voglibose at 0.009 mg/kg and 0.054 mg/kg (complex ratio 1:0.031:0.18) such that a complex ratio may be included at a clinical dose expected in a state where a dose of a compound prepared in Preparation Example 1 was fixed.

blood glucose [6] = assay: Blood glucose after 7-day administration in db/db diabetic mice
Description: In order to examine synergistic effects of a complex by a compound prepared in Preparation Example 1 of the present invention and an insulin sensitizer PPARγ agonist, the percent inhibition of blood glucose by repeated administration of the complex to db/db mice as diabetic mice was evaluated. Eight-week-old male mice (db/db mice) were used as experimental subjects. […] The dose of a compound prepared in Preparation Example 1 with respect to rosiglitazone at a fixed dose was selected at 1 mg/kg and 40 mg/kg (complex ratio 1:0.01˜1:0.4) in consideration of a complex ratio in an expected clinical dose. […] 0.5% methylcellulose (MC) was at each drug concentration to prepare suspensions. Each compound was weighed, and 0.5% methylcellulose was used to prepare 5 mL/kg of suspensions with each composition of (1 mg of the compound prepared in Preparation Example 1+0.4 mg of rosiglitazone)/5 mL and (40 mg of the compound prepared in Preparation Example 1+0.4 mg of rosiglitazone)/5 mL.
The percent inhibition value with respect to blood glucose was calculated by comparison with a control group.

blood glucose [7] = assay: OGTT after 4-week administration in diet-induced obesity mice (rimonabant combination); settings: obese mice
Description: as §1
as §3, with “Diagnostics). The pharmaceutically mixed composition” for “Diagnostics). The mixed composition”, “(0 min). […] The percent” for “(0 min). Blood collection was made at designated time points—just prior to drug administration, just prior to glucose administration, and 15, 30, 60 and 90 min after glucose administration. The percent”

CC(C)(C)OC[C@@H]1C(=O)NCCN1C(=O)C[C@H](N)Cc1cc(F)c(F)cc1F [(R)-4-[(R)-3-amino-4-(2,4,5-trifluorophenyl)-butanoyl]-3-(t-butoxymethyl)piperazin-2-one]
Fat mass ([1]; 0.3 mg/kg): 3.67 ± 0.12 g | % reduction (fat mass) ([1]; 0.3 mg/kg): −1.65% | Fat mass ([1]; 3 mg/kg): 3.29 ± 0.21 g | % reduction (fat mass) ([1]; 3 mg/kg): 8.71% | Percent inhibition (plasma glucose vs control) (plasma glucose; 2-week repeated administration 0.1 mg/kg): 2% | Percent inhibition (plasma glucose vs control) (plasma glucose; 2-week repeated administration 0.15 mg/kg): 15% | Percent inhibition (blood glucose AUC, OGTT) (blood glucose [2]; single administration 0.1 mg/kg): 2% | Percent inhibition (blood glucose AUC, OGTT) (blood glucose [2]; single administration 0.15 mg/kg): 3% | Percent inhibition (blood glucose AUC, OGTT) (blood glucose [3]; single oral dose 0.1 mg/kg): 7.7% | ED30 ± (SEM) (blood glucose [4]): 0.20 mg/kg and 0.2 mg/kg and 0.20 ± 0.04 mg/kg | Percent inhibition (blood glucose AUC, OGTT) (blood glucose [4]; single oral dose 0.1 mg/kg): 18.5% | Percent inhibition (blood glucose AUC, OGTT) (blood glucose [4]; single oral dose 0.3 mg/kg): 38.7% | Percent inhibition (blood glucose AUC, OGTT) (blood glucose [4]; single oral dose 1 mg/kg): 54.8% | Percent inhibition (blood glucose AUC, oral sucrose tolerance test) (blood glucose [5]; single oral dose 0.3 mg/kg): 12% | Percent inhibition (blood glucose vs control) (blood glucose [6]; 7 days oral 1 mg/kg): 21% | Percent inhibition (blood glucose vs control) (blood glucose [6]; 7 days oral 40 mg/kg): 11% | Percent inhibition (blood glucose AUC, OGTT) (blood glucose [7]; 4-week administration 0.3 mg/kg): 18.2% | Percent inhibition (blood glucose AUC, OGTT) (blood glucose [7]; 4-week administration 3 mg/kg): 35.3%

CCC1=C(C)CN(C(=O)NCCc2ccc(S(=O)(=O)NC(=O)N[C@H]3CC[C@H](C)CC3)cc2)C1=O [Glimepiride, glimepiride]
Percent inhibition (blood glucose AUC, OGTT) (blood glucose [3]; single oral dose 0.02 mg/kg): −3.69% | Percent inhibition (blood glucose AUC, OGTT) (blood glucose [3]; single oral dose 0.32 mg/kg): 10.9%

CN(C)C(=N)N=C(N)N [Metformin, metformin, reference compound]
Percent inhibition (plasma glucose vs control) (plasma glucose; 2-week repeated administration 7.5 mg/kg): 13% | Percent inhibition (plasma glucose vs control) (plasma glucose; 2-week repeated administration 15 mg/kg): 14% | Percent inhibition (blood glucose AUC, OGTT) (blood glucose [2]; single administration 7.5 mg/kg): 7% | Percent inhibition (blood glucose AUC, OGTT) (blood glucose [2]; single administration 15 mg/kg): 11% | ED30 ± (SEM) (blood glucose [4]): 29.6 mg/kg and 30 mg/kg and 29.6 ± 6.68 mg/kg | Percent inhibition (blood glucose AUC, OGTT) (blood glucose [4]; single oral dose 10 mg/kg): 7.43% | Percent inhibition (blood glucose AUC, OGTT) (blood glucose [4]; single oral dose 30 mg/kg): 29.06% | Percent inhibition (blood glucose AUC, OGTT) (blood glucose [4]; single oral dose 100 mg/kg): 54.46%

Cc1c(C(=O)NN2CCCCC2)nn(-c2ccc(Cl)cc2Cl)c1-c1ccc(Cl)cc1 [Rimonabant, rimonabant, reference compound]
Fat mass ([1]; 3 mg/kg): 2.11 ± 0.31 g | % reduction (fat mass) ([1]; 3 mg/kg): 41.5% | Percent inhibition (blood glucose AUC, OGTT) (blood glucose [7]; 4-week administration 3 mg/kg): 1.1%

CN(CCOc1ccc(CC2SC(=O)NC2=O)cc1)c1ccccn1 (stereo not shown) [Rosiglitazone, rosiglitazone, reference compound]
Percent inhibition (blood glucose vs control) (blood glucose [6]; 7 days oral 0.4 mg/kg): 10%

OCC(CO)N[C@H]1C[C@](O)(CO)[C@@H](O)[C@H](O)[C@H]1O [Voglibose, voglibose]
Percent inhibition (blood glucose AUC, oral sucrose tolerance test) (blood glucose [5]; single oral dose 0.009 mg/kg): 1% | Percent inhibition (blood glucose AUC, oral sucrose tolerance test) (blood glucose [5]; single oral dose 0.054 mg/kg): 53%
